Data: US6534503B1, “Melanocortin receptor-3 ligands to treat sexual dysfunction” (Lion Bioscience AG, priority 1998, dated 2003)
pEC50: −log10 of the molar value. One block for each compound: values may come before it.

Key:
MC-3 = target: T1, MC-3 (Homo sapiens, UniProt P41968); experiment: cAMP assay for melanocortin receptors, HEK 293 cells expressing MC-3; assay type: cell-based; conditions: for Emax: HEK293, percentage of stimulation obtained by adding HP-228 at 0.8 μM, read-out: % of HP-228 (MC-3 stimulatory effect); for pEC50: concentration for 50% of the maximum increase by that ligand
T1 construct: expressed in transfected cells; host or cells: HEK 293
T1 sequence (P41968 whole entry): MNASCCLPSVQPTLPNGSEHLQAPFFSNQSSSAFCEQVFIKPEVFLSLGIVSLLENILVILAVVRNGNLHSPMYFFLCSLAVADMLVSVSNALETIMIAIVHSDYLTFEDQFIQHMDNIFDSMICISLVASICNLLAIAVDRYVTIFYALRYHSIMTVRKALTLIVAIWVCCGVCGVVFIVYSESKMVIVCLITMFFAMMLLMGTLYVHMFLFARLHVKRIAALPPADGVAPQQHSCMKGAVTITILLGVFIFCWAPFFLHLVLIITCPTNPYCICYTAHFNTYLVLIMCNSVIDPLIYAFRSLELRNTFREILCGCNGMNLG
Text: (§1) All cell culture media and reagents were obtained from GibcoBRL (Gaithersburg Md.), except for COSMIC CALF SERUM (HyClone; Logan Utah). HEK 293 cell lines were transfected with human MC receptors hMCR-1, hMCR-3 and hMCR-4 (Gantz et al., Biochem. Biophys. Res. Comm. 200:1214-1220 (1994); Gantz et al., J. Biol. Chem. 268:8246-8250 (1993); Gantz et al. J. Biol. Chem. 268:15174-15179 (1993); Haskell-Leuvano et al., Biochem. Biophys. Res. Comm. 204:1137-1142 (1994)). Vectors for constructing an hMCR-5-expressing cell line were obtained and a line of HEK 293 cells expressing hMCR-5 was constructed (Gantz, supra, 1994). Receptor hMCR-5 has been described previously (Franberg et al., Biochem. Biophys. Res. Commun. 236:489-492 (1997); Chowdhary et al., Cytogenet. Cell Genet. 68:1-2 (1995); Chowdhary et al., Cytogenet. Cell Genet. 68:79-81 (1995)). HEK 293 cells were maintained in DMEM, 25 mM HEPES, 2 mM glutamine, non-essential amino acids, vitamins, sodium pyruvate, 10% COSMIC CALF SERUM, 100 units/ml penicillin, 100 μg/ml streptomycin and 0.2 mg/ml G418 to maintain selection.
(§2) This example describes methods for assaying cAMP production from G-protein-coupled MC receptors.
(§3) HEK 293 cells individually expressing MCR-1, CR-3, MCR-4 or MCR-5 were used. Cells were plated at 20,000 cells per well in a 96-well plate coated with collagen (Beckton Dickinson; Bridgeport N.J.). The next day, cells were pretreated with 88 μl of 0.4 mM 3-isobutyl-1-methylxanthine (IBMX) in low serum medium containing DMEM, 25 mM HEPES and 0.1% COSMIC CALF SERUM. IBMX is an inhibitor of cAMP phosphodiesterase. The pretreatment was carried out for 10 minutes at 37° C.
(§4) Following pretreatment, 12.5 μl of diluted compound was added to the wells and cells were incubated for 15 min at 37° C. Cells were lysed by adding 25 μl saponin lysis buffer (130 mM KCl, 1 mM KH2PO4, 2.5 mM MgSO4, 15 mM sucrose, 20 mM HEPES, 2% BSA, 0.8% saponin) and incubating 2 to 5 minutes. Plates were covered and stored at −20° C.
(§5) The cAMP concentration was determined by ELISA. Briefly, 96 well ELISA plates were coated with goat anti-cAMP antibody in PBS for 12 to 72 hr at 4° C. 50 μl of sample was mixed with 50 μl of cAMP ELISA buffer containing 1% bovine serum albumin, 10% heat inactivated donor horse serum, 1% normal mouse serum and 0.05% TWEEN-20 in PBS, and the diluted sample was added to the coated ELISA plate. Standards of known concentrations of cAMP were added to separate wells. Then, cAMP-conjugated horseradish peroxidase (cAMP-HRP) was added to each well at 25 μl of 16 ng/ml. The plates were incubated for 3 hr at room temperature. Plates were washed and the binding of cAMP-HRP was detected with 3,3′,5,5′-tetramethylbenzidine (TMB) and hydrogen peroxide using standard immunoassay procedures.
(§6) Various compounds were tested for in vitro activity and binding to melanocortin receptors. MC-3 stimulatory effect is also described in terms of percentage of stimulation obtained by adding HP-228 at 0.8 μM. The EC50 values are the concentration of ligand necessary to achieve 50% of the maximum increase by that ligand in an assay. The IC50 values are the concentration giving 50% inhibition of binding of ^125I-HP 467.

MC-1 = target: T2, MC-1 (Homo sapiens, UniProt Q01726); experiment: cAMP assay for melanocortin receptors, HEK 293 cells expressing MC-1; assay type: cell-based; conditions: concentration for 50% of the maximum increase by that ligand
T2 construct: expressed in transfected cells; host or cells: HEK 293
T2 sequence (Q01726 whole entry): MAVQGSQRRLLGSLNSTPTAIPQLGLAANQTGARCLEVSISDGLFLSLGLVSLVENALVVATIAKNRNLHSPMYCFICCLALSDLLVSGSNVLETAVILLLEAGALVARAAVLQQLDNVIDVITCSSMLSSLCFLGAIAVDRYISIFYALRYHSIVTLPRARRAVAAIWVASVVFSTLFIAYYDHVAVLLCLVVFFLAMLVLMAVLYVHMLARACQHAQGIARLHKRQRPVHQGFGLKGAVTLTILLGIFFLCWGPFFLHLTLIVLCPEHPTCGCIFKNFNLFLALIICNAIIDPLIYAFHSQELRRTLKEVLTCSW
Text: as §1, §2, §3, §4
as §5, with “procedures. […]” for “procedures.”

MC-4 = target: T3, MC-4 (Homo sapiens, UniProt P32245); experiment: cAMP assay for melanocortin receptors, HEK 293 cells expressing MC-4; assay type: cell-based; conditions: concentration for 50% of the maximum increase by that ligand
T3 construct: expressed in transfected cells; host or cells: HEK 293
T3 sequence (P32245 whole entry): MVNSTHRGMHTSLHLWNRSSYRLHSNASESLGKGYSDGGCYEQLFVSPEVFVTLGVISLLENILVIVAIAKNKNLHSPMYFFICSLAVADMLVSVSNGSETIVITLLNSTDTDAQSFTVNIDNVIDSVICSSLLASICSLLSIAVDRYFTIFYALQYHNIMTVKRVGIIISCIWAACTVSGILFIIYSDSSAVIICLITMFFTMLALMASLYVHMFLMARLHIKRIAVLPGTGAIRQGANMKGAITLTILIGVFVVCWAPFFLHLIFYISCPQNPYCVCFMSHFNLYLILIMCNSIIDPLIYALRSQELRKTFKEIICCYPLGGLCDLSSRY
Text: as §1, §2, §3, §4, §5, §6

male Sprague-Dawley rats [1] = experiment: Effect of oxytocin receptor antagonist vasotocin on erectile effects in rats; assay type: in vivo; conditions: rat
Text: (§7) In both examples, male Sprague-Dawley rats, about 200 to 225 g, were acclimated for 5 days in a reverse light:dark cycle room (dark 10 a.m. to 10 p.m.) before being aseptically ICV cannulated. Rats with indwelling ICV cannulae were housed one per cage. After surgery, 4 days were allowed for recovery and 10 days total were allowed for adaptation to the light cycle. Rats were caged individually after surgery and body weights at the time of treatment averaged 250 g. Otherwise, the procedure is essentially the same as in Example II.
Treatment was between 10 a.m. and 1 p.m. […] Vasotocin (Peninsula Laboratories, San Carlos Calif.) was administered ICV at 100 ng/rat. Oxytocin (Sigma, St. Louis Mo.) was administered ICV at 30 ng/rat (10 μl/rat PBS). Ten minutes later, IP injections of HP-228 or vehicle were given. HP-228 was administered IP at 2 mg/kg in 3 ml/kg PBS. One group of animals received ICV injections of vasotocin and oxytocin ICV injections of 5 μl/rat each at double concentrations for a total of 10 μl injected ICV. In this group, the rats received vasotocin first, followed by oxytocin.

male Sprague-Dawley rats [2] = experiment: Effect of dopamine receptor antagonist sulpiride on erectile effects in rats; assay type: in vivo; conditions: rat
Text: as §7
Treatment was between 9:30 a.m. and noon. Each animal received an initial IP injection of vehicle (3 ml/kg PBS) or sulpiride. Sulpiride (Sigma) was administered IP at 50 mg/kg (6 ml/kg IP). Ten minutes later, the animals received a final IP injection of HP-228 or vehicle or a SC injection of apomorphine. HP-228 was administered IP at 2 mg/kg in 3 ml/kg PBS. Apomorphine (Sigma) was administered SC at 0.1 mg/kg (1 ml/kg sterile water).

[3] = single agent plus PBS: oxytocin 30 ng/rat ICV, HP-228 2 mg/kg IP, vasotocin 100 ng/rat ICV
[4] = single agent plus PBS: apomorphine 0.1 mg/kg SC, HP-228 2 mg/kg IP, sulpiride 50 mg/kg IP
[5] = sulpiride 50 mg/kg IP followed by HP-228 2 mg/kg IP
[6] = sulpiride 50 mg/kg IP followed by apomorphine 0.1 mg/kg SC
[7] = vasotocin 100 ng/rat ICV followed by HP-228 2 mg/kg IP
[8] = vasotocin ICV followed by oxytocin ICV

Compound: CC(C)(C)c1ccc(-c2nc3cc(C(=O)NC(Cc4ccccc4)c4ccccc4)ccc3n2C(CCCNC(=N)N)C(N)=O)cc1 (centres unmarked) [Compound E]
Emax (MC-3): 59% | pEC50 (MC-3): 5.17 | pEC50 (MC-1): 6.37 | pEC50 (MC-4): 4.70

Compound: CC(C)(C)c1ccc(-c2nc3cc(C(=O)N4CC=C(c5ccc(Cl)cc5)CC4)ccc3n2[C@@H](CCCNC(=N)N)C(N)=O)cc1 [Compound K]
Emax (MC-3): 91% | pEC50 (MC-3): 5.76 | pEC50 (MC-1): 6.42 | pEC50 (MC-4): 7.10

Compound: CC[C@H](C)[C@@H]1NC(=O)[C@H](Cc2ccc(O)cc2)NC(=O)[C@@H](N)CSSC[C@@H](C(=O)N2CCC[C@H]2C(=O)N[C@@H](CC(C)C)C(=O)NCC(N)=O)NC(=O)[C@H](CC(N)=O)NC(=O)[C@H](CCC(N)=O)NC1=O [Oxytocin]
response rate, % of animals (male Sprague-Dawley rats [1]; oxytocin and HP-228 groups): 88%-100% | erections per hour (male Sprague-Dawley rats [1]; [3]): 3.9 erections per hour | responder rate of animals (rats responding out of rats) (male Sprague-Dawley rats [1]; [3]): 7/8

Compound: CN1CCc2cccc3c2[C@H]1Cc1ccc(O)c(O)c1-3 [apomorphine]
response rate, % of animals (male Sprague-Dawley rats [2]; apomorphine and HP-228 groups): 100% | erections per hour (male Sprague-Dawley rats [2]; [4]): 4.0 erections per hour | rate of animals responding (male Sprague-Dawley rats [2]; [4]): 6/6

Compound: CCN1CCCC1CNC(=O)c1cc(S(N)(=O)=O)ccc1OC (centres unmarked) [sulpiride]
erections per hour (male Sprague-Dawley rats [2]; [4]): 0.0 erections per hour | rate of animals responding (male Sprague-Dawley rats [2]; [4]): 0/2 | erections per hour (male Sprague-Dawley rats [2]; [5]): 6.7 erections per hour | rate of animals responding (male Sprague-Dawley rats [2]; [5]): 4/4 | erections per hour (male Sprague-Dawley rats [2]; [6]): 1.5 erections per hour | rate of animals responding (male Sprague-Dawley rats [2]; [6]): 3/4

Compound: d(CH2)5-Tyr(Me^2)-Orn^8-Vasotocin
erections per hour (male Sprague-Dawley rats [1]; [3]): 0.2 erections per hour | responder rate of animals (rats responding out of rats) (male Sprague-Dawley rats [1]; [3]): 2/8 | erections per hour (male Sprague-Dawley rats [1]; [7]): 5.6 erections per hour | responder rate of animals (rats responding out of rats) (male Sprague-Dawley rats [1]; [7]): 8/8 | erections per hour (male Sprague-Dawley rats [1]; [8]): 1.0 erections per hour | responder rate of animals (rats responding out of rats) (male Sprague-Dawley rats [1]; [8]): 4/8

More lines, now with the values ahead:

Emax (MC-3): 89% | pEC50 (MC-3): 5.12 | pEC50 (MC-1): 6.33
Compound: CC(C)(C)c1ccc(-c2nc3cc(C(=O)N(CCc4ccccc4)Cc4ccccc4)ccc3n2C(CCCNC(=N)N)C(N)=O)cc1 (centres unmarked) [Compound A]

Emax (MC-3): 115% | pEC50 (MC-3): 5.88 | pEC50 (MC-4): 4.92
Compound: CCCCOc1ccc(-c2nc3cc(C(=O)NC(Cc4ccccc4)c4ccccc4)ccc3n2C(CCCNC(=N)N)C(N)=O)cc1 (centres unmarked) [Compound B]

Emax (MC-3): 92% | pEC50 (MC-3): 5.85 | pEC50 (MC-4): 4.97
Compound: CC(C)c1ccc(-c2nc3cc(C(=O)NC(Cc4ccccc4)c4ccccc4)ccc3n2C(CCCNC(=N)N)C(N)=O)cc1 (centres unmarked) [Compound C]

Emax (MC-3): 140% | pEC50 (MC-3): 5.77 | pEC50 (MC-4): 5.55
Compound: CC(C)c1ccc(-c2nc3cc(C(=O)N(CCc4ccccc4)Cc4ccccc4)ccc3n2C(CCCNC(=N)N)C(N)=O)cc1 (centres unmarked) [Compound D]

Emax (MC-3): 350% | pEC50 (MC-3): 5.33 | pEC50 (MC-1): 6.66 | pEC50 (MC-4): 5.20
Compound: CC(C)(C)c1ccc(-c2nc3cc(C(=O)N(CCc4ccccc4)Cc4cccnc4)ccc3n2[C@@H](CCCNC(=N)N)C(N)=O)cc1 [Compound L]

Emax (MC-3): 89% | pEC50 (MC-3): 5.44
Compound: CCCCOc1ccc(-c2nc3cc(C(=O)N(CCc4ccccc4)Cc4cccnc4)ccc3n2[C@@H](CCCNC(=N)N)C(N)=O)cc1 [Compound M]

Emax (MC-3): 229% | pEC50 (MC-3): 5.63 | pEC50 (MC-4): 5.23
Compound: CCCCCc1ccc(-c2nc3cc(C(=O)N(CCc4ccccc4)Cc4ccccc4)ccc3n2[C@@H](CCCNC(=N)N)C(N)=O)cc1 [Compound N]
